# Measurements published in PubChem BioAssay (NCI).
#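 Results reflect a 48-hour exposure of cells in 96-well plates to compound at five concentrations. GI50 is the concentration that inhibits growth by half. At the TGI there is no net growth.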
# How the values were obtained:
# Assay in all cases: growth of human tumour cells (NCI), 48 h
# A498 renal = test system: A498 renal
# NCI-H23 lung = test system: NCI-H23 lung
# HCT-116 colon = test system: HCT-116 colon
# HS 578T breast = test system: HS 578T breast
# SN12C renal = test system: SN12C renal
# OVCAR-8 ovarian = test system: OVCAR-8 ovarian
# NCI-H226 lung = test system: NCI-H226 lung
# HL-60(TB) leukemia = test system: HL-60(TB) leukemia
# HT29 colon = test system: HT29 colon
# SR leukemia = test system: SR leukemia
SMILES,GI50 (A498 renal),TGI (A498 renal),GI50 (NCI-H23 lung),TGI (NCI-H23 lung),GI50 (HCT-116 colon),TGI (HCT-116 colon),GI50 (HS 578T breast),TGI (HS 578T breast),GI50 (SN12C renal),TGI (SN12C renal),GI50 (OVCAR-8 ovarian),TGI (OVCAR-8 ovarian),GI50 (NCI-H226 lung),TGI (NCI-H226 lung),GI50 (HL-60(TB) leukemia),TGI (HL-60(TB) leukemia),GI50 (HT29 colon),TGI (HT29 colon),GI50 (SR leukemia),TGI (SR leukemia)
COc1ccc(COc2ccc(Cc3cnc(N)nc3N)cc2OC)cc1,2.27 µM,> 25 µM,> 17.1 µM,> 25 µM,14.6 µM,> 25 µM,> 23.4 µM,> 25 µM,> 25 µM,> 25 µM,> 25 µM,> 25 µM,16 µM,> 25 µM,> 20.6 µM,> 25 µM,11.7 µM,> 25 µM,24.3 µM,> 25 µM
O=C(Nc1cccc(Cl)c1)Nc1cc(C(F)(F)F)ccc1Cl,2.16 µM,6.36 µM,2.44 µM,6.59 µM,2.54 µM,7.48 µM,2.63 µM,8.39 µM,3.01 µM,11.5 µM,3.16 µM,7.75 µM,3.25 µM,10.5 µM,3.02 µM,31.3 µM,3.03 µM,11.3 µM,3.78 µM,38 µM
CN1c2cccc[c]2[Sn]([CH3])([CH3])[c]2ccccc21,0.101 µM,0.255 µM,< 0.01 µM,0.0677 µM,< 0.0107 µM,< 0.0161 µM,0.0166 µM,0.683 µM,< 0.0138 µM,0.116 µM,< 0.0134 µM,< 0.023 µM,< 0.0138 µM,0.132 µM,< 0.01 µM,0.0569 µM,< 0.012 µM,< 0.0249 µM,< 0.01 µM,0.0387 µM
COc1cc(-c2cc(-c3ccc(Nc4nc(Nc5ccc(Cl)cc5)nc(Nc5ccc(Cl)cc5)n4)cc3)no2)cc(OC)c1OC,2.71 µM,> 100 µM,18 µM,> 100 µM,4.31 µM,42.9 µM,1.71 µM,> 100 µM,39.1 µM,> 100 µM,36 µM,> 100 µM,27 µM,> 100 µM,2.32 µM,55.5 µM,16.9 µM,> 100 µM,1.92 µM,21.6 µM
OCC1OC(n2cnc3cc(Cl)c(Cl)cc32)C(O)C1O (centres undefined),> 47.3 µM,> 67.7 µM,18.8 µM,42.3 µM,18 µM,44.2 µM,27 µM,> 96.3 µM,20.6 µM,58.4 µM,34.7 µM,> 72.2 µM,8.32 µM,35.3 µM,20 µM,> 100 µM,33.6 µM,> 100 µM,0.648 µM,
CC(=O)Nc1ccc2c(c1)[nH]c(=O)c1cc(NC(C)=O)ccc12,> 100 µM,> 100 µM,> 100 µM,> 100 µM,> 100 µM,> 100 µM,> 100 µM,> 100 µM,> 100 µM,> 100 µM,> 100 µM,> 100 µM,> 100 µM,> 100 µM,26.6 µM,> 100 µM,> 100 µM,> 100 µM,15.5 µM,53.4 µM
Cc1c(-c2c(F)cc(C(N)=O)c3[nH]c4c(c23)CC[C@H](C(C)(C)O)C4)cccc1-n1c(=O)c2cccc(F)c2n(C)c1=O,2.8 µM,10.2 µM,2.79 µM,> 100 µM,2.66 µM,> 100 µM,4.62 µM,> 100 µM,3.9 µM,> 100 µM,4.16 µM,> 100 µM,3.84 µM,26.4 µM,0.971 µM,3.22 µM,0.864 µM,> 100 µM,1.88 µM,5.81 µM
Cn1cc(-c2nc(-c3c[nH]c4ccccc34)cs2)c2cccnc21,0.315 µM,6.1 µM,1.04 µM,> 100 µM,0.364 µM,> 47.2 µM,0.424 µM,> 85.1 µM,2.09 µM,> 100 µM,0.689 µM,> 100 µM,0.578 µM,> 100 µM,0.317 µM,> 72.4 µM,0.166 µM,18.3 µM,0.167 µM,> 79.4 µM
Nc1[nH]c(=S)[nH]c(=O)c1N=Nc1c(Br)cc(S(N)(=O)=O)cc1Br,,> 100 µM,,> 100 µM,,> 100 µM,,> 100 µM,,> 100 µM,,> 100 µM,,> 100 µM,,> 100 µM,,> 100 µM,,> 100 µM
CCN(CC(O)COc1ccc2c(c1)[n+]([O-])nc(N)[n+]2[O-])C(C)=O (centres undefined),,> 100 µM,,> 100 µM,,> 100 µM,,> 100 µM,,> 100 µM,,> 100 µM,,> 100 µM,,> 100 µM,,> 100 µM,,> 100 µM
Nc1cc2c3ccccc3ccc2c2ccccc12,> 100 µM,> 100 µM,> 100 µM,> 100 µM,13.4 µM,> 100 µM,> 100 µM,> 100 µM,> 100 µM,> 100 µM,> 44.6 µM,> 100 µM,> 61.4 µM,> 100 µM,> 68.6 µM,> 100 µM,> 100 µM,> 100 µM,> 100 µM,> 100 µM
CN1CCN(CCCn2c3c(sc4ncccc43)c(=O)n3nnc(-c4ccccc4)c23)CC1,6.7 µM,21.3 µM,1.97 µM,4.38 µM,1.72 µM,3.31 µM,4.82 µM,12.3 µM,14.5 µM,28.8 µM,1.88 µM,4.31 µM,15.1 µM,31.9 µM,1.48 µM,3.47 µM,1.82 µM,3.88 µM,0.241 µM,0.603 µM
c1ccc(OCC[P+](c2ccccc2)(c2ccccc2)c2ccccc2)cc1,3.53 µM,16.6 µM,0.938 µM,6.7 µM,0.491 µM,11.3 µM,2.27 µM,16.5 µM,1.94 µM,16.4 µM,1.54 µM,15 µM,2.03 µM,12.1 µM,0.275 µM,1.45 µM,0.308 µM,10.9 µM,2.31 µM,12.3 µM
Cc1cccc(Nc2ncc(-c3ccccc3)o2)c1,> 25 µM,> 25 µM,> 25 µM,> 25 µM,> 25 µM,> 25 µM,> 7 µM,> 25 µM,> 25 µM,> 25 µM,> 25 µM,> 25 µM,> 25 µM,> 25 µM,> 25 µM,> 25 µM,> 25 µM,> 25 µM,> 25 µM,> 25 µM
COC1C[C@H](O[C@@H]2C[C@H](O[C@@H]3C[C@H](O[C@@H]4C(=O)c5c(cc6cc(O[C@H]7C[C@@H](O[C@H]8C[C@@H](O)[C@H](O)C(C)O8)[C@H](O)C(C)O7)c(C)c(O)c6c5O)C[C@H]4C(OC)C(=O)[C@@H](O)[C@@H](C)O)OC(C)[C@H]3O)OC(C)[C@@H]2O)OC(C)[C@@H]1O (some centres undefined),0.0395 µM,0.108 µM,0.0899 µM,0.695 µM,0.0968 µM,> 32.5 µM,0.0743 µM,4.96 µM,0.113 µM,> 32.5 µM,0.108 µM,> 32.5 µM,,,0.362 µM,> 32.5 µM,0.0974 µM,> 32.5 µM,0.0406 µM,> 32.5 µM
CC#CC#C/C=C1/C=CC2(CCCCO2)O1 (centres undefined),,> 100 µM,,> 100 µM,,> 100 µM,,> 100 µM,,> 100 µM,,> 100 µM,,> 100 µM,,47.4 µM,,> 100 µM,,> 100 µM
C=C1C(=O)O[C@H]2[C@H]1CC/C(COC(=O)NCCc1ccc(Br)cc1)=C\CC[C@@]1(C)O[C@@H]21,2.07 µM,4.21 µM,1.72 µM,3.84 µM,0.477 µM,1.81 µM,2.41 µM,7.15 µM,,,1.49 µM,3.69 µM,1.72 µM,3.37 µM,1.06 µM,3.97 µM,1.32 µM,3.38 µM,0.43 µM,2.91 µM
COc1cc(/C=C/[N+](=O)[O-])cc(OC)c1,2.96 µM,9.12 µM,1.85 µM,4.37 µM,1.84 µM,3.64 µM,4.11 µM,23.3 µM,3.38 µM,15.9 µM,3.72 µM,13.9 µM,17.3 µM,46.1 µM,2.22 µM,5.68 µM,3.08 µM,10.4 µM,1.14 µM,5.45 µM
CC1NCCC(CC(=O)O)C1CC(=O)O (centres undefined),,> 100 µM,,> 100 µM,,> 100 µM,,> 100 µM,,> 100 µM,,> 100 µM,,> 100 µM,,> 100 µM,,> 100 µM,,> 100 µM
COC(=O)C1(N2CCOCC2)CCC([C@@H](c2ccccc2)C(C)[N+](=O)[O-])C1 (some centres undefined),,> 100 µM,,> 100 µM,,,,> 100 µM,,> 100 µM,,> 100 µM,,> 100 µM,,> 100 µM,,> 100 µM,,60.4 µM
